Earlier results on 7 molecules are cited in patent US6362158B1, “Multi-phase clear fabric softening composition” (Colgate-Palmolive Co., priority 2000, dated 2002).

Where “and” joins values, the source holds several entries; their conditions need not be identical. Identical values can stand only once.

For one data set the following is noted: solvent; logarithm to base 10 of P.
For `OCCCCO` [1-4 Butanediol], the “log P (octanol/water partition coefficient)” value was “(log P = −1.3)”.
Regarding `CCCOC(C)COC(C)CO` (centres unmarked) [DPnP, dipropylene glycol n-propyl ether], the “log P (octanol/water partition coefficient)” value is given as 0.99)^2.
Consider `CCCCCO` [Pentanol], for which the “log P (octanol/water partition coefficient)” value was 1.3.
For `CC(C)C(O)C(C)(C)CO` (centres unmarked) [Trimethyl Pentanediol], the “log P (octanol/water partition coefficient)” value was 1.24.
Regarding `CCCCCCCCCCO` [Decanol], the “log P (octanol/water partition coefficient)” value was 3.32).
For the molecule `CCCCCCCCO` [Octanol], the “log P (octanol/water partition coefficient)” value is on record as 3.15).
In the case of `CCCCOC(C)COC(C)COC(C)CO` (centres unmarked) [TPnB, tripropylene glycol n-butyl ether], the “log P (octanol/water partition coefficient)” value was 1.896 and 1.9.

The data set is the same for the next values; noted with them: solvent; logarithm to base 10 of P; listed as dipropylene glycol n-propyl ether.
With `CCCOC(C)COC(C)CO` (centres unmarked) [DPnP, dipropylene glycol n-propyl ether], the “log P (octanol/water partition coefficient)” value was 0.994.
